Measurements taken from ChEMBL document CHEMBL2311532, “Identification of benzofuran central cores for the inhibition of leukotriene A(4) hydrolase” (Bioorg Med Chem Lett, 2013).

Key:
[1] = biological target: T1, Leukotriene A-4 hydrolase (Homo sapiens, UniProt P09960); assay: Inhibition of recombinant human LTA4H expressed in Sf9 cells using LTA4 as substrate incubated for 10 mins prior to substrate addition measured after 10 to 30 mins by enzyme immunoassay
T1 sequence (P09960 whole entry): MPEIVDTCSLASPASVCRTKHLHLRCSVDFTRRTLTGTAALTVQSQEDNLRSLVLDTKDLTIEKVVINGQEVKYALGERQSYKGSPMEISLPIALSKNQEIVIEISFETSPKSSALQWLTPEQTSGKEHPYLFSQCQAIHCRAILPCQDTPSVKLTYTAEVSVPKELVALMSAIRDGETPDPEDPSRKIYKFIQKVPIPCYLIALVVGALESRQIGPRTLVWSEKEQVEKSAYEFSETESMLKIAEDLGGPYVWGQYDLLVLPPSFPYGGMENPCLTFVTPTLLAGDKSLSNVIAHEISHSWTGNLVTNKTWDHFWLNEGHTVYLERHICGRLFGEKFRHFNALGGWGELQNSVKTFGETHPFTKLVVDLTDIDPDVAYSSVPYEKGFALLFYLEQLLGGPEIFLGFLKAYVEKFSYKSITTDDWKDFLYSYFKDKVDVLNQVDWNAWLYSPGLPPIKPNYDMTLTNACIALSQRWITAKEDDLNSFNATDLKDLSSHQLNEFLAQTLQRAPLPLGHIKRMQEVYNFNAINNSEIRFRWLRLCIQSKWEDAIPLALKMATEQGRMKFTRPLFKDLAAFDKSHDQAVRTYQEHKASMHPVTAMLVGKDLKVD

[2] = biological target: T2, Leukotriene A-4 hydrolase (Mus musculus, UniProt P24527); assay: Inhibition of LTA4H in CD1 mouse whole blood assessed as decrease in calcium ionophore-stimulated LTB4 production incubated for 15 mins prior to calcium ionophore challenge measured after 10 to 30 mins by enzyme immunoassay
T2 sequence (P24527 whole entry): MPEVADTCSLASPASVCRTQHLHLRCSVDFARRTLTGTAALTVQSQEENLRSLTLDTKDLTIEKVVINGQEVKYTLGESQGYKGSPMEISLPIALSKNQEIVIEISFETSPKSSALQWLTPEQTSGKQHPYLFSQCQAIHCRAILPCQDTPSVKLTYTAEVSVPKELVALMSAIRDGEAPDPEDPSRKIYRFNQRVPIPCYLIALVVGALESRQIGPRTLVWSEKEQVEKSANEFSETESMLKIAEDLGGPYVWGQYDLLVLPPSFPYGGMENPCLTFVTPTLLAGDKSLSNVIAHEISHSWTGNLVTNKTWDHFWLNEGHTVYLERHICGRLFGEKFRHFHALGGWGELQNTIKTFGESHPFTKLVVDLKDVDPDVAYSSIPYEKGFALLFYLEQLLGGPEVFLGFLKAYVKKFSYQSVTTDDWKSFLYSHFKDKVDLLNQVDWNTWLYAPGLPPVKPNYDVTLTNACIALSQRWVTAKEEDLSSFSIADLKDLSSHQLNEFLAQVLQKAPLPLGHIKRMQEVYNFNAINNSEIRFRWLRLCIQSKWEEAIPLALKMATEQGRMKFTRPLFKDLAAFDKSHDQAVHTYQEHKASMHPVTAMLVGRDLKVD

[3] = test system: Mus musculus; assay: Inhibition of LTA4H in po dosed Balb/c mouse assessed as decrease in calcium ionophore-stimulated LTB4 production in blood administered for 4 hrs prior to calcium ionophore challenge measured after 10 to 30 mins by enzyme immunoassay; assay type: functional
[4] = Half life in Sprague-Dawley rat at 3 mg/kg, iv and 10 mg/kg, po; assay type: ADME, organism-based; conditions: in vivo
[5] = Volume of distribution at steady state in Sprague-Dawley rat at 3 mg/kg, iv and 10 mg/kg, po; assay type: ADME, organism-based; conditions: in vivo, read-out: Vdss
[6] = Clearance in Sprague-Dawley rat at 3 mg/kg, iv and 10 mg/kg, po; assay type: ADME, organism-based; conditions: in vivo
[7] = test system: Mus musculus; assay: Inhibition of LTA4H in po dosed Balb/c mouse assessed as concentration required to decrease calcium ionophore-stimulated LTB4 production in blood administered for 4 hrs prior to calcium ionophore challenge measured after 10 to 30 mins by enzyme immunoassay; assay type: functional, organism-based
[8] = Oral bioavailability in Sprague-Dawley rat at 10 mg/kg; assay type: ADME, organism-based; conditions: in vivo
[9] = biological target: T1, Leukotriene A-4 hydrolase; assay: Inhibition of LTA4H in human whole blood assessed as decrease in LTB4 production

| Structure (SMILES) | IC50 [1] [nM] | IC50 [2] [nM] | other results |
| --- | --- | --- | --- |
| c1ccc2sc(Oc3ccc4c(CN5CCOCC5)coc4c3)nc2c1 | 140 | 1120 | – |
| O=C1CCCN1C1CCN(Cc2coc3cc(Oc4nc5ccccc5s4)ccc23)CC1 | 58 | 230 | – |
| CC(=O)NC1CCN(Cc2coc3cc(Oc4nc5ncccc5s4)ccc23)CC1 | 3.7 | 17 | – |
| CC(=O)N1CC2CC1CN2Cc1coc2cc(Oc3nc4cnccc4s3)ccc12 (centres undefined) | 340 | – | – |
| c1cnc2nc(Oc3ccc4c(CN5CCCCC5)coc4c3)sc2c1 | 4.6 | 21 | – |
| O=C(O)C1CCN(Cc2coc3cc(Oc4nc5ccccc5s4)ccc23)CC1 | 14 | 19 | – |
| c1ccc2sc(Oc3ccc4cc(CN5CCCCC5)oc4c3)nc2c1 | 430 | – | – |
| CC(=O)N[C@H]1C[C@H]2CC[C@@H](C1)N2Cc1coc2cc(Oc3nc4ncccc4s3)ccc12 | 1.6 | 9.8 | – |
| CC(=O)N1C[C@@H]2C[C@H]1CN2Cc1coc2cc(Oc3nc4ccccc4s3)ccc12 | 34 | 250 | – |
| O=C1CCCN1C1CCN(CCOc2ccc(Oc3nc4ccccc4s3)cc2)CC1 | – | – | ED50 [3]: 10 mg/kg; half-life [4]: 0.9 h; Vd [5]: 1.1 L/kg; clearance [6]: 8.33 mL/min/kg; EC50 [7]: 72 nM; bioavailability [8]: 29% |
| CC(=O)N1CC2CC1CN2Cc1coc2cc(Oc3nc4ncccc4s3)ccc12 (centres undefined) | 7.3 | 21 | – |
| CC(=O)N1CC2CC1CN2Cc1coc2cc(Oc3nc4cccnc4s3)ccc12 (centres undefined) | 300 | – | – |
| CC(=O)N[C@H]1C[C@H]2CC[C@@H](C1)N2Cc1coc2cc(Oc3nc4ccccc4s3)ccc12 | 7.3 | 69 | – |
| CC(=O)N1CC2CC1CN2Cc1cc2ccc(Oc3nc4cnccc4s3)cc2o1 (centres undefined) | 2370 | – | – |
| c1cnc2nc(Oc3ccc4c(CN5CCOCC5)coc4c3)sc2c1 | 25 | 49 | – |
| c1cnc2nc(Oc3ccc4oc(CN5CCCCC5)cc4c3)sc2c1 | 66 | 91 | – |
| CC(=O)N1CC2CC1CN2Cc1cc2ccc(Oc3nc4cccnc4s3)cc2o1 (centres undefined) | 2130 | – | – |
| c1ccc2sc(Oc3ccc4c(CN5CCCCC5)coc4c3)nc2c1 | 67 | 420 | – |
| CC(=O)N1CC2CC1CN2Cc1cc2cc(Oc3nc4ncccc4s3)ccc2o1 (centres undefined) | 7 | 27 | – |

Further lines, with some results ahead:

| IC50 [1] [nM] | IC50 [2] [nM] | Structure (SMILES) | other results |
| --- | --- | --- | --- |
| 51 | 140 | c1cnc2nc(Oc3ccc4cc(CN5CCCCC5)oc4c3)sc2c1 | – |
| 8.3 | 280 | O=C(O)C1CCN(Cc2coc3cc(Oc4nc5ncccc5s4)ccc23)CC1 | – |
| 340 | – | CC(=O)N1CC2CC1CN2Cc1cc2cc(Oc3nc4cccnc4s3)ccc2o1 (centres undefined) | – |
| 7.3 | 21 | CC(=O)N1C[C@@H]2C[C@H]1CN2Cc1coc2cc(Oc3nc4ncccc4s3)ccc12 | – |
| – | 21 | O=C1CCCN1C1CCN(Cc2coc3cc(Oc4nc5ncccc5s4)ccc23)CC1 | ED50 [3]: 0.3 mg/kg; inhibition [3]: Dose-dependent effect; half-life [4]: 2.5 h; Vd [5]: 1.6 L/kg; IC50 [9]: 61 nM; clearance [6]: 11.7 mL/min/kg; EC50 [7]: 3 nM; bioavailability [8]: 61% |
| 340 | – | CC(=O)N1CC2CC1CN2Cc1cc2cc(Oc3nc4cnccc4s3)ccc2o1 (centres undefined) | – |
| 26 | 100 | CC(=O)NC1CCN(Cc2coc3cc(Oc4nc5ccccc5s4)ccc23)CC1 | – |
| 62 | 210 | CC(=O)N1CC2CC1CN2Cc1cc2ccc(Oc3nc4ncccc4s3)cc2o1 (centres undefined) | – |
| 330 | – | c1ccc2sc(Oc3ccc4oc(CN5CCCCC5)cc4c3)nc2c1 | – |
